Key:
[1] = target: T1, recombinant human 5-HT2A receptor (Homo sapiens, UniProt P28223); assay: Radioligand binding, [3H]Ketanserin competition in CHO-K1 cell membranes; conditions: [3H]Ketanserin displacement, 32° C., pH 7.4, read-out: pKi for the 5-HT2A receptor (converted)
T1 construct: expressed in transfected cells
Method: The binding activity of compounds of this invention in vitro was determined as follows. Duplicate determinations of 5-HT6 ligand affinity were made by competing for binding of [^3H]LSD in cell membranes derived from HEK293 cells stably expressing recombinant human 5-HT6 receptor. Duplicate determinations of 5-HT2A ligand affinity were made by competing for binding of [^3H]Ketanserin (3-(2-(4-(4-fluorobenzoyl)piperidinol)ethyl)-2,4(1H,3H)-quinazolinedione) in cell membranes derived from CHO—K1 cells stably expressing recombinant human 5-HT2A receptor. Membranes were prepared from HEK 293 cell lines by the method described by Monsma et al., Molecular Pharmacology, Vol. 43 pp. 320-327 (1993), and from CHO—K1 cell lines as described by Bonhaus et al., Br J Pharmacol. June;1 15(4):622-8 (1995).
For estimation of affinity at the 5-HT6 receptor, all determinations were made in assay buffer containing 50 mM Tris-HCl, 10 mM MgSO4, 0.5 mM EDTA, 1 mM ascorbic acid, pH 7.4 at 37° C., in a 250 microliter reaction volume. […]
Assay tubes containing [^3H] […] LSD or [^3H]Ketanserin were determined as radioactive counts per minute using Packard TopCount.
Displacement of [^3H]LSD or [^3H]Ketanserin from the binding sites was quantified by fitting concentration-binding data to a 4-parameter logistic equation: […]

T1 sequence (P28223 whole entry): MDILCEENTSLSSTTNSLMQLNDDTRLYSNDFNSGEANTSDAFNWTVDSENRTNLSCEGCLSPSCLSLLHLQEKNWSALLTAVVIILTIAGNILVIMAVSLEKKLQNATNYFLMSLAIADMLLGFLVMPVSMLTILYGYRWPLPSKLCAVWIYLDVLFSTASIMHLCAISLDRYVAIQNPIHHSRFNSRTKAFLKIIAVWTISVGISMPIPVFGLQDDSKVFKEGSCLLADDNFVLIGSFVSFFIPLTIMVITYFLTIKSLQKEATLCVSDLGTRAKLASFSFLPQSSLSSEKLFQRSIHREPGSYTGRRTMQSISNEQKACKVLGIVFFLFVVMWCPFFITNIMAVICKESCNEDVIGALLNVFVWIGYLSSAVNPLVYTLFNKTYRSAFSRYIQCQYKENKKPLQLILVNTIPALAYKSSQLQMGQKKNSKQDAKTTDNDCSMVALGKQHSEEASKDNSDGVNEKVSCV

Ki [1]: ~18.2 nM
melting point: 245.8 to 246.4 °C
Structure (SMILES): CNC[C@H]1COc2ccc(S(=O)(=O)c3cccc(F)c3)cc2O1 [[7-(3-Fluoro-benzenesulfonyl)-2,3-dihydro-benzo[1,4]dioxin-2-(S)-ylmethyl]-methyl-amine]

— patent publication US7368567B2, “Arylsulfonyl benzodioxanes, benzoxazines and benzothiazines as 5-HT6 antagonists” (Roche Palo Alto LLC, priority 2004, dated 2008)
